Common to all, as to assay type: in vivo
For test [1], the system named is male Swiss mice. The test is described as follows: Paracellular permeability in mouse colon (51Cr-EDTA) during intracolonic infusion of protease inhibitors. To be noted: 5-hour intracolonic infusion 250 μl/h, 51Cr-EDTA from hours 3 to 5. How it is done: Six groups of ten male Swiss mice (25-30 g) were used for this study. The animals received a 5-hour intracolonic infusion (250 μl/h) of the different protease inhibitor solutions through a catheter inserted through the rectum and fixed at the base of the tail; ^51Cr-EDTA was added to the infusion from hours 3 to 5 (FIG. 2). At t=5 hours, the animals were sacrificed, the colons removed, and total radioactivity remaining in the body was taken as an indicator of paracellular permeability.

Test [2] deals with male Wistar rats. Put plainly: Colon mucosa permeability to 51Cr-EDTA, radioactivity in 24-hour urine of rats. To be noted: rat; SLIGRL 0.05, 0.2 and 0.5 mg/rat into colon lumen at t=0; 10-hour intracolonic 51Cr-EDTA infusion; vs solvent. How it is done:
Six groups of eight male Wistar rats (200-250 g) were used for this study. The animals were fitted with an indwelling intracolonic catheter in the proximal colon (3 cm from the caeco-colic junction). In these experiments, four groups of rats received a 10-hour intracolonic infusion of ^51Cr-EDTA ([…]). The animals were placed in separate cages and total 24-hour urine was collected. Radioactivity was measured in the urine to evaluate the permeability of the colon mucosa to ^51Cr-EDTA. Increasing doses of the PAR-2 activator peptide (SLIGRL) were injected in the colon lumen (groups 2, 3 and 4) at time t=0 (start of ^51Cr-EDTA infusion) at a dose of 0.05, 0.2 and 0.5 mg/rat. Group 1 received the solvent.

The test system of test [3] is male Swiss mice. Put plainly: Colon paracellular permeability in mice after trypsin, supernatant of colon contents and antibiotic cocktail. The following applies: mouse, intracolonic trypsin 50 μL. How it is done: Groups of ten male Swiss mice (Janvier-France) weighing 25-30 g were used for this study. In baseline conditions, the effects on colon paracellular permeability of intracolonic infusion of trypsin (50 μL, 600 U) and of supernatant of colon contents taken from control mice and given by a 3-hour intracolonic infusion (250 μL/h) on one day (D1) or on two consecutive days (D2) were evaluated. The same infusions were then repeated after 12 days of treatment with oral an antibiotic cocktail (neomycin 2 mg/kg/day+ampicillin 1 mg/kg/day).

The test system of test [4] is male Wistar rats. Put plainly: Rectal sensitivity to distention (abdominal contractions, EMG) after intracolonic trypsin. The following applies: rat, distention at t=10 h, distention volumes 0.8, 1.2 and 1.6 ml, vs solvent control. How it is done:
At time t=0, the animals received an intracolonic infusion of trypsin ([…]), a specific PAR-2 receptor activator at the dose of 20 units (group 1) or solvent (group 2). At time t=10 h after the intracolonic trypsin infusion, the animals were subjected to the rectal distention protocol.

As for `CNC(=O)[C@H](Cc1c[nH]c2ccccc12)NC(=O)[C@@H](CC(=O)NO)CC(C)C` [galardin], the “paracellular permeability (total radioactivity remaining in the body)” value in the test on male Swiss mice [1] is “significantly lower”. With SLIGRL, the “permeability to 51Cr-EDTA (recovery in 24-hour urine)” value in the test with male Wistar rats [2] is listed as “dose-dependent increase”. trypsin: the “increase in colon permeability after the antibiotic treatment” value in the test with male Swiss mice [3] (600 U after 12 days of antibiotic cocktail) is “disappeared”. For the same compound, the “colon paracellular permeability, baseline conditions” value in the test on male Swiss mice [3] (600 U, normal mice) is “increase”. Further, the “abdominal response to rectal distention” value in the test on male Wistar rats [4] was “significant decrease”. In the case of aprotinin, the “paracellular permeability (total radioactivity remaining in the body)” value with male Swiss mice [1] was “significantly lower”.

(Values after patent US20080286355A1, “Protease Inhibitors For the Treatment of Digestive Pathologies” (priority 2004, published 2008).)
